Test results as given in US11229675B2, “Therapeutic peptides for excitatory neurotoxicity-related injuries” (Biocells (Beijing) Biotech Co., Ltd., priority 2016, dated 2022).
Values joined by “and” are separate entries in the source; they are usually repeats but may differ in a detail not shown here. Identical values can stand only once. Where no end group is shown, it is not given here.

How the values were obtained:
[1] = system: MCAO model rats; experiment: HE staining for histological changes in brains of MCAO rats; type: in vivo, rat; conditions: therapeutic and prophylactic administration, 10 mg/kg, 24 h after ischemia
Experimental: The rats in each group were decapitated at 24 h after ischemia, and the resultant brain was coronally sectioned near the optic chiasm with a thickness of about 4 mm. The sections were fixed with 10% formalin solution and dehydrated with alcohol with a concentration gradient from 70% to 100%. The sections were permeabilized twice in xylene, and embedded in paraffin. The paraffin block was carefully trimmed, and immobilized on a paraffin slicing machine, and sliced to sections with a thickness of 4 μm. The paraffin sections were completely unfolded, attached to a clean and dry glass slide, and stored in a refrigerator at 4° C. Conventional HE staining was performed, and the staining results were observed by light microscopy.

[2] = system: rats; experiment: Acute toxicity test on rats; type: in vivo, rat; conditions: 200 mg/kg body weight
Experimental: Acute toxicity tests were performed on rats.

[3] = system: MCAO model rats; experiment: Cerebral infarction volume (TTC staining) in MCAO model rats; conditions: rat, in vivo
Experimental: The focal cerebral ischemia-reperfusion model was prepared according to the reversible middle cerebral artery occlusion (MCAO) suture method proposed by Longa with modifications in view of the anatomical structure of the rat brain. The rats were anesthetized by intraperitoneal administration of 10% chloral hydrate at a dose of […]. After anesthetization, a cut was created at the cervical midline, and the common carotid artery (CCA), external carotid artery (ECA) and pterygopalatine artery were exposed. The head portion (0.5 cm) of a monofilament nylon fishing line (0.26 mm) was coated with paraffin and a mark was made at 20 mm. All rats were inserted through the right CCA incision, and the pterygopalatine artery was temporarily clamped to prevent mis-insertion. The length of the occlusion line was about 18-20 mm from the bifurcation of CCA depending on the animal's weight, thereby occluding middle cerebral artery on the right side. The skin was then sewed, and the tail end of the occlusion line was partially fixed to the skin. After a period of ischemia for 2 hours, the occlusion line was carefully pulled out to form a reperfusion. The procedure steps for the sham control were the same as the surgery group, except for insertion of a nylon fishing line. The body temperature was maintained at 37±0.5° C. during the ischemia period and 2 h after reperfusion.
The used animals were male adult SD rats (Vittalia) of SPF grade with body weight of 220-250 g.
No drugs were administered to the normal group and the sham group.
The rats were sacrificed by decapitation after scoring. The brain tissues were quickly removed and placed in a refrigerator at −20° C. After 10 minutes, the tissues were placed in a room temperature environment. The brains were placed in a rat brain section mold. After the olfactory bulb, cerebellum and low brain stem were removed, the brains were coronally cut five times at 2 mm thickness as shown in the profile to obtain six continuous raw coronal slices. Then, the brain sections were quickly placed in a 5 ml solution containing 2% TTC, and incubated at 37° C. for 30 minutes in the dark, during which the brain sections were flipped once every 5 minutes. With the TTC staining, the normal tissue would be rose red, and the infarcted tissue would be unstained and retained white. Each group of brain sections was arranged neatly, and photographed. The photos were processed by an image analysis system software and statistically analyzed. The infarction area of each brain section was calculated, and multiplied by the thickness of each brain section (2 mm). The products of the infarction area of individual brain section multiplied by the thickness were summed to obtain the cerebral infarction volume for each animal. The volumes were expressed as percentages accounting for the cerebral hemisphere to eliminate the effects of cerebral edema.

| Compound | pathological changes of brain tissue (HE staining) [1] | acute toxicity [2] | Mean of infarction volume percentage [3] | Mean of infarction volume percentage ([3]; 1 mg/kg) | Reduction of infarction volume percentage vs model group ([3]; 1 mg/kg) | Mean of infarction volume percentage ([3]; 3 mg/kg) | Reduction of infarction volume percentage vs model group ([3]; 3 mg/kg) | effect on cerebral infarction volume ([3]; 3 mg/kg) | Mean of infarction volume percentage ([3]; 10 mg/kg) | Reduction of infarction volume percentage vs model group ([3]; 10 mg/kg) | reduction of cerebral infarction volume ([3]; 10 mg/kg) |
| --- | --- | --- | --- | --- | --- | --- | --- | --- | --- | --- | --- |
| CC[C@H](C)[C@H](NC(=O)[C@H](CCC(=O)O)NC(=O)[C@@H](NC(=O)[C@H](CC(=O)O)NC(=O)[C@H](CC(C)C)NC(=O)[C@H](CC(C)C)NC(=O)[C@H](CCCCN)NC(=O)[C@H](CCC(=O)O)NC(=O)[C@H](Cc1ccc(O)cc1)NC(=O)[C@H](CCCNC(=N)N)NC(=O)[C@H](CCCNC(=N)N)NC(=O)[C@H](CCCNC(=N)N)NC(=O)[C@H](CCC(N)=O)NC(=O)[C@H](CCCNC(=N)N)NC(=O)[C@H](CCCNC(=N)N)NC(=O)[C@H](CCCCN)NC(=O)[C@H](CCCCN)NC(=O)[C@H](CCCNC(=N)N)NC(=O)CNC(=O)[C@@H](N)Cc1ccc(O)cc1)[C@@H](C)O)C(=O)O [P5] | significantly improved | no lethal effect and other obvious toxic side effects | 24.84% and 36.54% and 43.22% | 44.23% | 3.76% | 35.66% | 22.41% | desirably reduced the cerebral infarction volume | 19.54% | 57.48% | about 50% |
| YGRKKRRQRRRKLSSIESDV [NA-1, reference compound] |  |  | 38.56% |  |  |  |  |  |  |  |  |
| YGRKKRRQRRRYEKLSSIESDV [YE-NA-1, reference compound] |  |  | 33.96% |  |  |  |  |  |  |  |  |
